The values that follow come from ChEMBL document CHEMBL5120862, “Novel non-covalent LSD1 inhibitors endowed with anticancer effects in leukemia and solid tumor cellular models” (Eur J Med Chem, 2022).

Active and inactive are the calls of the source. The rule behind the calls is not given here.

The IC50 is the concentration that inhibits the measured activity by half. Usually Ki stands for the equilibrium dissociation constant of an inhibitor or competing ligand from its target.

A short description of data set [1]: Cytotoxicity against HMEC cells assessed as residual cell viability at 1 uM incubated for 72 hrs by MTT assay relative to control. The note with it: human, read-out: Activity. Type of data set: toxicity, cell-based. On the technique in general: Tetrazolium dyes change colour on reduction, which living cells bring about.
In data set [2] the test system is RD. Kind of data set: Antiproliferative activity against human RD cells assessed as inhibition of cell growth incubated for 72 hrs. Type of data set: functional, cell-based.
The target of data set [3] is Lysine-specific histone demethylase 1A (Homo sapiens) (UniProt O60341). Kind of data set: Inhibition of LSD1 in human MV4-11 cells assessed as increase in H3K4me2 level at 0.2 to […] incubated for 24 hrs by Western blot analysis. In kind it is cell-based. Conditions: dose 0.2-2.5 µM. (Immunoblotting shows a protein as a band on a membrane.)
For data set [4] the target is unchanged. The data set can be described thus: Inhibition of LSD1 in human RD cells assessed as increase in H3K4me2 level at 1 uM incubated for 48 hrs by Western blot analysis. Type of data set: cell-based.
The target of data set [5] is T1, Histone-lysine N-methyltransferase EHMT2 (Homo sapiens, UniProt Q96KQ7).
T1 sequence (Q96KQ7 whole entry): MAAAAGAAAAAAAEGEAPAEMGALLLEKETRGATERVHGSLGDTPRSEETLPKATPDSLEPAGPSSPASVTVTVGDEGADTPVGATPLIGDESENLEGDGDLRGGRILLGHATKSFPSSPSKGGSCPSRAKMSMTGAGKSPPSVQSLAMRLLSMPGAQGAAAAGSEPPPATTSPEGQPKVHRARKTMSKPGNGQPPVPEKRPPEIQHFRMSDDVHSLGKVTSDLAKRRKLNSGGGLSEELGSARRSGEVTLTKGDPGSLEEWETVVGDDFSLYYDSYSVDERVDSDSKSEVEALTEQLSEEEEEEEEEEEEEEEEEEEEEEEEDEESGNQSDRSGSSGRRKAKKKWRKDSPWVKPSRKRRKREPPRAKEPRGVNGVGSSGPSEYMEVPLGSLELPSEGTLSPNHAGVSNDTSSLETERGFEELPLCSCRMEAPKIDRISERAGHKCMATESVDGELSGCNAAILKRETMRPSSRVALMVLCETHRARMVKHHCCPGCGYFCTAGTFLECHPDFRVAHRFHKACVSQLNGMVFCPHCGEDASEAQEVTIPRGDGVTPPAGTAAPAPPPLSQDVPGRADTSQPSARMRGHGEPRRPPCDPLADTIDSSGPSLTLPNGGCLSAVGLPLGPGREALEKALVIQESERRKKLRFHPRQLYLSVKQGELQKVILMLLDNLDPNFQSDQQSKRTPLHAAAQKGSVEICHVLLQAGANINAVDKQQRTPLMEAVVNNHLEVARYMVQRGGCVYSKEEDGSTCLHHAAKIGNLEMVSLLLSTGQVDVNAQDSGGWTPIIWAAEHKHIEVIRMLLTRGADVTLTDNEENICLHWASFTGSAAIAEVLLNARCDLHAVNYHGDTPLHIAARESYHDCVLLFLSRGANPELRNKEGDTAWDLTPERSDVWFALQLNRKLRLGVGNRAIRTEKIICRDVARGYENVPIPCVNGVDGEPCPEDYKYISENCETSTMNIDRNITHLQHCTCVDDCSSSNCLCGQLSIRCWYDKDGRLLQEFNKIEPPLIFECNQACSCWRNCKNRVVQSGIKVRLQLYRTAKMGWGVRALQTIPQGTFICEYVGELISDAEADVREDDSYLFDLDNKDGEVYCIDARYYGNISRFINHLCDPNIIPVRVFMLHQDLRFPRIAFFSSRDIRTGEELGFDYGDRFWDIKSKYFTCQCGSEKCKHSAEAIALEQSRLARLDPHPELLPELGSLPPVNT
Kind of data set: Inhibition of G9a (unknown origin) assessed as reduction in substrate methylation using histone H3 and SAM as substrate measured after 15 to 60 mins by microfluidic capillary electrophoresis analysis.

In the next data set the test system is THP-1. Kind of data set: Antiproliferative activity against human THP-1 cells assessed as inhibition of cell growth incubated for 24 hrs by CellTiter-Glo luminescent cell viability assay. Type of data set: functional, cell-based. Conditions: THP-1, 24 h. In general terms: Cellular ATP, detected with luciferase, serves as a proxy for viable cell number.
Data set [6] has as its system RD. Kind of data set: Antiproliferative activity against human RD cells assessed as reduction in live cells at 2 uM incubated for 72 hrs by calceinAM/propidium iodide staining based fluorescence microscopy. Type of data set: functional, cell-based.
The subject of a further data set is MV4-11. Kind of data set: Antiproliferative activity against human MV4-11 cells assessed as inhibition of cell growth at 0.2 to […] incubated for 72 hrs by trypan blue staining based analysis. Type of data set: functional. Conditions: dose 0.2-2.5 µM.

In the case of `COc1cc2c(NC3CCN(Cc4ccccc4)CC3)nc(NCCCN(C)C)nc2cc1OCc1ccccc1`, the viability at 72 h, 1 µM in data set [1] worked out at 76%. In addition, the values for the IC50 in the data set with RD [2] and in the data set with THP-1 were 850 nM and 270 nM, respectively. The inhibition entry (in data set [3]; in data set [4]; with MV4-11) was “Active” throughout. For the same molecule, the Ki in data set [5] was found to be 39400 nM. Moreover, the result in the data set on RD [6] was Active.
